Measurements: PubChem BioAssay (NCI)
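Values below derive from 48-hour exposures of cells grown in 96-well plates, with endpoints linearly interpolated between the two concentrations bracketing the appropriate inhibition level. GI50: concentration for 50% inhibition of growth. Definition used: TGI = concentration required for complete inhibition of growth.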

System: MDA-MB-468 breast
Assay: NCI tumour cell line growth inhibition, 48 h

Structure (SMILES) | GI50 | TGI
O=C1/C(=C/c2ccc([N+](=O)[O-])o2)Oc2ccc(Br)cc21 | 2020 nM | 4460 nM
N=c1c2c(-c3ccccc3)c(-c3ccccc3)n(Cc3ccccc3)c2ncn1CCCO | 581 nM | 2090 nM
CCCCCCCCCCCCCCCC[N+](C)(C)CCN(Cc1ccc(OC)cc1)c1ncccn1 | 1040 nM | 3580 nM
CC(CN1CCN(C)CC1)CN1c2ccccc2Sc2ccc(C(F)(F)F)cc21 (stereo unspecified) | 1630 nM | 3220 nM
COc1ccn2c(C(C)=O)cc(C(=O)c3ccc4c(c3)Sc3ccccc3N4)c2c1 | 159 nM | > 24800 nM
Cn1c(=O)c(Oc2ccc(F)cc2F)cc2cnc(NC(CO)CO)nc21 | > 25000 nM | > 25000 nM
Cc1nc2cnc3cc(F)c(-c4ccc(Oc5ncccn5)cc4Cl)cc3c2n1[C@H]1CCN(C(=O)CO)C[C@@H]1F | 9470 nM | 28900 nM
COc1ccc(-c2cnnn2-c2cc(OC)c3c(c2)OCO3)cc1 | 56.5 nM | > 100000 nM
COc1ccc2c(c1)c(-c1nc(-c3c[nH]c4ncccc34)cs1)cn2CCCCN1CCOCC1 | 1950 nM | 3980 nM
CN(c1ccc(NC(=O)Nc2ccc(OC(F)(F)F)cc2)cc1)c1ccnc(Nc2cccc(S(N)(=O)=O)c2)n1 | 3930 nM | 8860 nM
O=C1/C(=C/c2ccccc2F)CNC/C1=C\c1ccccc1F | 626 nM | 2750 nM
CS(=O)(=O)c1ccc(-c2cnc(N)c(C(=O)Nc3ccccc3)n2)cc1 | > 37200 nM | > 100000 nM
COc1cc(Cn2c(=S)ss/c2=N\C(=S)N(C)C)cc(OC)c1OC | 7040 nM | > 100000 nM
CC1=CCC(OC(=O)C(C)(C)CCC(O)(C(=O)OC2(C(C)C)CCC3(C)OC3C2)C(C)C)(C(C)C)CC1 (stereo unspecified) | 351 nM | 1240 nM
C[C@H]1[C@H](C)CC[C@]2(C(=O)N3CCN(C)CC3)CC[C@]3(C)C(=CC[C@@H]4[C@@]5(C)C/C(=C/c6cccnc6)C(=O)C(C)(C)[C@@H]5CC[C@]43C)[C@H]12 | 665 nM | 2040 nM
Cc1cc(NC(=O)NC(=O)c2ccccc2N)ccc1Oc1ncc(Br)cn1 | < 10 nM | > 100000 nM
C=CC1=C[C@@H]2[C@@H]3O[C@]4(CC[C@H](O4)[C@@H](C)C[C@@H](O)C3=O)C[C@H](O)C3=NCC[C@@]32CC1 | < 3.33 nM | < 3.33 nM
NC1=C(Br)C(=O)c2ncccc2C1=O | 570 nM | 2130 nM
COc1ccc(C(=O)/C=C/c2c(C(F)(F)F)nc3sccn23)cc1OC | 6180 nM | > 100000 nM
COC(=O)c1cc(-c2cc(OC)c(OC)c(OC)c2)[nH]c1N/N=C/c1c(Cl)cccc1Cl | 8290 nM | 48200 nM
COc1ccc(C(=O)COc2cccc(/C=C3\CSc4ccccc4C3=O)c2)cc1 | 1420 nM | 2930 nM
C=CCNCCCN1C(=O)c2ccc3c4c(ccc(c24)C1=O)C(=O)N(CCCNCC=C)C3=O | 177 nM | 423 nM
COc1ccc(-c2nnc(SCC(=O)Nc3ccc(/C(C)=N\O)cc3)n2-c2ccccc2)cc1OC | 16400 nM | > 100000 nM

Structure (SMILES) | GI50 | TGI
O=C(CCCCCCSc1nc(-c2ccccc2)cc(-c2ccccc2)n1)NO | 2770 nM | 10500 nM
CCc1cccc2c3c(sc12)C(c1ccc(Cl)cc1)C(C#N)=C(N)O3 (stereo unspecified) | 280 nM | 1020 nM
CN1CCN(c2nc(NCCCCNc3ccnc4cc(Cl)ccc34)c3ccccc3n2)CC1 | 1580 nM | 3660 nM
CCN(CCNc1ccc(C)c2sc3cc(Cl)ccc3c(=O)c12)CC(C)O (stereo unspecified) | 1740 nM | 3390 nM
COc1cc(C(O)c2nc3ccccc3s2)cc(OC)c1OC (stereo unspecified) | 5680 nM | 57200 nM
CC(C)(C)c1cc(NC(=O)Nc2ccc(-c3cn4c5c(sc4n3)CCc3c[nH]cc3-5)cc2)no1 | 1970 nM | 32800 nM
C=C(C)[C@@H]1CC[C@]2(C(=O)NCCNCCNCCN)CC[C@]3(C)[C@H](CC[C@@H]4[C@@]5(C)CC[C@H](O)C(C)(C)[C@@H]5CC[C@]43C)[C@@H]12 | 8880 nM | 22700 nM
C[C@]12CC[C@@H]3c4ccc(O)cc4CC[C@H]3[C@@H]1CC[C@@H]2NS(=O)(=O)c1cccc(C(F)(F)F)c1 | 4080 nM | 16900 nM
NC(=O)c1cc([N+](=O)[O-])c(Cl)c([N+](=O)[O-])c1 | 1670 nM | 3320 nM
CCCCCc1ccc(S(=O)(=O)Nc2cccc(-c3csc(NCCN4CCN(C)CC4)n3)c2)cc1 | 1630 nM | 3160 nM
CC(C)[C@@]12C[C@@H](OC(=O)COC(=O)/C=C/c3ccccc3)[C@@](C)(O1)[C@@H]1CC[C@@H](C)[C@H]1[C@@H]2OC(=O)/C=C/c1ccccc1 | > 61400 nM | > 100000 nM
COc1ccc(-c2cc(-c3ccccc3)nc(N3CCN(CCNc4ccnc5cc(Cl)ccc45)CC3)n2)cc1 | 1220 nM | 2620 nM
C/C(=C\c1ccn(-c2ccc(N)c(F)c2)n1)[C@@H]1C[C@@H]2O[C@]2(C)CCC[C@H](C)[C@H](O)[C@@H](C)C(=O)C(C)(C)[C@@H](O)CC(=O)O1 | 9.96 nM | –
Cn1ccc2c(c1=O)C(=O)c1nccc3c1c-2nc1ccccc13 | 1440 nM | 2810 nM
CCN1CCN(CC(=O)Nc2nc3ccc(NCc4ccc(Cl)cc4)cc3s2)CC1 | 1770 nM | 4610 nM
Cc1ccc2cc3c(ccc4ccccc43)c3c2c1CC3 | 169 nM | 372 nM
COc1ccc(C/C(C)=C(\c2ccc(OCCN3CCOCC3)cc2)c2ccc(OC(=O)Cc3ccccc3)cc2)cc1 | 514 nM | 1470 nM
N#Cc1c2cccnc2c2nnc3cc(Cl)c(Cl)cc3n12 | 1100 nM | 2590 nM
O=C1CC(c2ccc3c(c2)OCO3)Nc2cc3c(cc21)OCO3 (stereo unspecified) | 295 nM | 924 nM
CN(C)c1ccc(-c2cc(-c3ccc(Nc4nc(Nc5ccccc5)nc(Nc5ccc(Cl)cc5)n4)cc3)nc(N)n2)cc1 | 7910 nM | > 100000 nM
Cn1ccnc1C(=O)/C=C/c1ccc(CC(=O)Nc2ccc(S(F)(F)(F)(F)F)cc2)cc1 | 2480 nM | 5170 nM
Cc1nc2sc(C(=O)Nc3cccc4ccccc34)c(N)c2cc1C(=O)/C=C/c1ccccc1 | 194 nM | 745 nM
O=C1c2ccc3c4c5ccc(c24)C(=O)N1CCCOCCCCOCCCNCc1ccc(cc1)CNCCCOCCCCOCCCN(C3=O)C5=O | 802 nM | 1650 nM
